Assay results: publication PMC6576746, “Rational discovery of dual-indication multi-target PDE/Kinase inhibitor for precision anti-cancer therapy using structural systems pharmacology” (PLoS Computational Biology, 2019)

Tests used:
Test in all cases: cells
Set-up in all cases: species or system panel of human cancer cell lines; Eurofins OncoPanel proliferation; nuclei count by high-content fluorescence imaging, 10-point dose response
SW684 = conditions: Homo sapiens, SW684, 72 h, cell count, 3 days
How it was run: (§1)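 Ten half-log concentrations from 100 μM (0.1% DMSO max) applied one day post-seeding, 3-day exposure at 37°C; untreated time-zero plate for GI50. Readout is nuclear cell count by automated fluorescence imaging, giving EC50, IC50, GI50 and 0–10 activity area.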

A388 = conditions: 72 h, cell count, 3 days
How it was run: as §1

LS513 = conditions: Homo sapiens, LS-513, 72 h, cell count, 3 days
How it was run: as §1

TUR = conditions: 72 h, cell count, 3 days
How it was run: as §1

647-V = conditions: Homo sapiens, 647-V, 72 h, cell count, 3 days
How it was run: as §1

CML-T1 = conditions: CML-T1, 72 h, cell count, 3 days
How it was run: as §1

SW579 = conditions: SW579, 72 h, cell count, 3 days
How it was run: as §1

DMS114 = conditions: Homo sapiens, DMS-114, 72 h, cell count, 3 days
How it was run: as §1

Detroit 562 = conditions: Homo sapiens, Detroit 562, 72 h, cell count, 3 days
How it was run: as §1

L-428 = conditions: Homo sapiens, L-428, 72 h, cell count, 3 days
How it was run: as §1

RL95-2 = conditions: Homo sapiens, RL95-2, 72 h, cell count, 3 days
How it was run: as §1

BFTC-905 = conditions: Homo sapiens, BFTC-905, 72 h, cell count, 3 days
How it was run: as §1

BeWo = conditions: Homo sapiens, BeWo, 72 h, cell count, 3 days
How it was run: as §1

NCIH441 = conditions: Homo sapiens, NCI-H441, 72 h, cell count, 3 days
How it was run: as §1

[1] = 50% of maximum possible response

In the case of `C[C@@H]1CC(=O)NN=C1c1ccc(NN=C(C#N)C#N)cc1` [levosimendan], the IC50 (SW684; [1]) is reported as greater than 100 µM, the GI50 (SW684; corrected for time zero) is reported as 17.1 µM and the EC50 (SW684; curve inflection point) is reported as 21.1 µM. For the same compound, the IC50 (A388; [1]) was 61.1 µM, the GI50 (A388; corrected for time zero) was 48.4 µM and the EC50 (A388; curve inflection point) was 61.1 µM. It also gave an IC50 (LS513; [1]) of 17.2 µM, a GI50 (LS513; corrected for time zero) of 14.7 µM and an EC50 (LS513; curve inflection point) of 17.2 µM. For the same compound, the IC50 (TUR; [1]) was 6.72 µM, the GI50 (TUR; corrected for time zero) was 5.98 µM and the EC50 (TUR; curve inflection point) was 6.49 µM. It also gave an IC50 (647-V; [1]) of 13.7 µM, a GI50 (647-V; corrected for time zero) of 8.64 µM and an EC50 (647-V; curve inflection point) of 13.7 µM. It also gave an IC50 (CML-T1; [1]) of 15.7 µM, a GI50 (CML-T1; corrected for time zero) of 12.5 µM and an EC50 (CML-T1; curve inflection point) of 15.7 µM. The IC50 (SW579; [1]) was 90.1 µM, the GI50 (SW579; corrected for time zero) was 67.9 µM and the EC50 (SW579; curve inflection point) was 90.1 µM. For the same compound, the IC50 (DMS114; [1]) was 50.7 µM, the GI50 (DMS114; corrected for time zero) was 18.9 µM and the EC50 (DMS114; curve inflection point) was 50.7 µM. For the same compound, the IC50 (Detroit 562; [1]) was 50.9 µM, the GI50 (Detroit 562; corrected for time zero) was 28.4 µM and the EC50 (Detroit 562; curve inflection point) was 50.9 µM. It also gave an IC50 (L-428; [1]) of 69.2 µM, a GI50 (L-428; corrected for time zero) of 53.1 µM and an EC50 (L-428; curve inflection point) of 69.2 µM. For the same compound, the IC50 (RL95-2; [1]) was 21.1 µM, the GI50 (RL95-2; corrected for time zero) was 10.4 µM and the EC50 (RL95-2; curve inflection point) was 19 µM. The IC50 (BFTC-905; [1]) was 13.4 µM, the GI50 (BFTC-905; corrected for time zero) was 12.4 µM and the EC50 (BFTC-905; curve inflection point) was 13.4 µM. It also gave an IC50 (BeWo; [1]) of 37.4 µM, a GI50 (BeWo; corrected for time zero) of 33.9 µM and an EC50 (BeWo; curve inflection point) of 37.4 µM. It also gave an IC50 (NCIH441; [1]) greater than 100 µM, a GI50 (NCIH441; corrected for time zero) of 31.9 µM and an EC50 (NCIH441; curve inflection point) greater than 100 µM.
